Data: a melting point compilation (Tetko et al.; mined from patent text by program, amines drawn as free bases though some values may be those of a salt)

Compound O=C(Nc1ccc(-c2ccccc2)cc1C(=O)O)OCc1ccc(-c2ccccc2)cc1 has a melting point of 234 to 236 °C.
Cc1ccc(-n2c(-c3cc(-c4ccc(Cl)cc4)c(N4CCOCC4)s3)nc3ccccc3c2=O)cc1 showed a melting point of 224 to 226 °C.
In the case of Nc1ncnc2c1c(-c1cccc(CO)c1)nn2Cc1oc2ccccc2c(=O)c1-c1ccccc1, the melting point is reported as 219 to 223 °C.
Compound CC(COc1ccc(CC2SC(=O)NC2=O)cc1)NCC(O)c1cccc(C(F)(F)F)c1 (stereo not given) has a melting point of 100 to 105 °C.
CCOP(=O)(CCCN)OCC showed a melting point of 54 °C.
In the case of Cc1cc(C)cc(-c2c(O)c3ccc(Cl)cc3[nH]c2=O)c1, the melting point is reported as 369 °C.
Compound CCN1CCCC1CNC(=O)c1cc(NS(C)(=O)=O)ccc1OC (stereo not given) has a melting point of 171 to 172 °C.
Work on NC(=O)N(Cc1ccc(C(F)(F)F)c(N2CCCCC2)c1)c1cccc2c1CC(O)CC2 (stereo not given) yielded a melting point of 163 °C.
Work on O=C1CCCC(=O)C1c1ccccc1Cl yielded a melting point of 148 to 149 °C.
In the case of COC(=O)C1C2C=CC(C2)C1NC(=O)OCc1ccccc1 (stereo not given), the melting point is reported as 73 to 76 °C.
CCCCc1nc(Cl)c(CNC(=O)OCC)n1Cc1ccc(-c2ccccc2C(=O)O)cc1 showed a melting point of 144 to 147 °C.
In the case of COC(=O)C=Cc1ccc2[nH]c(C)cc2c1, the melting point is reported as 172 to 173 °C.
Work on CCCCOc1ccc(S(=O)(=O)N2CCC(NCc3ccccc3)C2)cc1 (stereo not given) yielded a melting point of 99 to 100 °C.
Work on OCc1ccc2cc(Cl)ccc2c1 yielded a melting point of 134 to 137 °C.
CN1N=C(c2ccc3c(c2)CCC(=O)N3)C2CC2C1=O (stereo not given) gave a melting point of 255 to 259 °C.
CCCc1ccc(NCc2ccc(N(C)C)cc2)cc1 gave a melting point of 74 to 76 °C.
Compound CCOC(=O)/C=C/c1ccc(OCCCC#N)cc1Oc1ncc(C(F)(F)F)cc1Cl has a melting point of 106 to 107 °C.
In the case of CCc1nc2ccc3c(c2o1)C(CCNC(C)=O)CC3 (stereo not given), the melting point is reported as 76 to 78 °C.
Compound Cc1nc2sc(S(=O)(=O)Cl)cc2c(=O)n1-c1ccccc1Cl has a melting point of 172 to 174 °C.
For CCn1c(=O)c2[nH]c(/C=C/c3cc(OC)c(OC)cc3Br)nc2n(CC)c1=O, the melting point was > 285 °C.
For Nc1nccc(N2CCc3ccccc32)n1, the melting point was 177 to 179 °C.
CC(C)(C)c1cc(CCc2n[nH]c(=O)o2)cc(C(C)(C)C)c1O showed a melting point of 120 to 123 °C.
In the case of CN(O)C(=O)NCCCCCOc1ccc(-c2ccccc2)cc1, the melting point is reported as 153 to 154 °C.
In the case of CCC(C)(C)Nc1c(-c2ccc(OC)cc2)c(=O)c1=O, the melting point is reported as 133 to 135 °C.
In the case of Nc1cccc2cnc(Cl)cc12, the melting point is reported as 176 to 177 °C.
For C=C(Oc1cc(-n2c(=O)cc(C(F)(F)F)[nH]c2=O)c(F)cc1Cl)C(=O)OC, the melting point was 171 to 173 °C.
With CN1CCN(c2ccc(-c3cnc4[nH]cc(C(=O)C5(C)CCCCC5)c4n3)cc2)CC1 the melting point was 225 to 226 °C.
In the case of CC(=O)OC1C(N(C)S(C)(=O)=O)c2cc(OCc3ccccc3)ccc2OC1(C)C (stereo not given), the melting point is reported as 124 to 125 °C.
CNCCc1c[nH]c2ccc3c(=O)[nH]ccc3c12 showed a melting point of 160 °C.
In the case of CCCCc1nn(-c2cc(NC(=O)COCC)ccc2Cl)c(=O)n1Cc1ccc(-c2ccccc2S(=O)(=O)NC(=O)OC(C)(C)C)cc1F, the melting point is reported as 100 to 102 °C.
In the case of COc1ccccc1-c1cccc2c1OC(COS(=O)(=O)c1ccc(C)cc1)C2 (stereo not given), the melting point is reported as 100 to 103 °C.
For Cn1c2c(c(=O)n(-c3cc(C(=O)O)c(Cl)cc3F)c1=O)CCC2, the melting point was 270 to 273 °C.
C=C(c1ccc(OC)cc1)c1ccc(OC)cc1 gave a melting point of 137 °C.
With CN1C(=O)C(C2=COc3ccccc3O2)=C(c2c[nH]c3cc(F)ccc23)C1=O the melting point was 214 °C.
C[C@@H](CC(=O)O)OC(=O)OCc1ccc([N+](=O)[O-])cc1 gave a melting point of 78 to 81 °C.
Work on COC(=O)c1cccc(Nc2nc(-c3cccnc3)nc3ccccc23)c1 yielded a melting point of 228 to 245 °C.
COC(=O)C1CCCN1S(=O)(=O)c1ccc(Cl)c(COc2cccn3c(C(C)=O)c(C)nc23)c1Cl (stereo not given) gave a melting point of 178 °C.
Work on CCc1cc(Oc2ccc([C@H](O)[C@@H](Cc3cccc(OC(F)(F)C(F)F)c3)NC(=O)c3cccc4c3C=CCCC4)cc2)ccc1Cl (racemic) yielded a melting point of 116 to 117 °C.
In the case of CCSc1ccc(-c2nccs2)c2c1C(=O)CC(C)C2 (stereo not given), the melting point is reported as 117 to 118 °C.
CC(C)CC(CS)C(N)=O (stereo not given) gave a melting point of 147 to 154 °C.
For CCN1N=C(c2ccc(F)cc2)c2cc(F)ccc2CS1(=O)=O, the melting point was 148 to 151 °C.
Compound CCOc1nn(Cc2ccc(OCCc3nc(-c4ccccc4)oc3C)cc2)cc1CCC(=O)O has a melting point of 142 to 143 °C.
CCN(Cc1cc(-c2ncco2)ccc1-c1ccccc1S(=O)(=O)Nc1onc(C)c1C)CC(F)(F)F gave a melting point of 55 to 65 °C.
NS(=O)(=O)c1nnc(NC(=O)c2ccccc2)s1 showed a melting point of 250 °C.
In the case of Clc1ccc(-c2ccc(Br)cc2)nn1, the melting point is reported as 201 to 203 °C.
In the case of COC(=O)c1ccc([N+](=O)[O-])[nH]1, the melting point is reported as 178 to 179 °C.
CCOC(=O)Nc1nc(C(=O)C(=O)OC)ns1 showed a melting point of 170 to 174 °C.
Cc1oc2cc(O)ccc2c(=O)c1C(=O)O showed a melting point of 286 to 287 °C.
For CCC12CCC3C4CCC(=O)C=C4CCC3C1CCC2=O (stereo not given), the melting point was 156 to 158 °C.
CCOC(=O)c1sc(SC)c(C(=O)CC(C)=O)c1C gave a melting point of 51 to 52 °C.
Work on CC(C)(O)c1cc(Cn2cncn2)cc(C(C)(C)C#N)c1 yielded a melting point of 152 to 154 °C.
With COc1ccc(-c2ccnc(N3CCN(c4c(C)c(C)c5c(c4C)CC(C)(C)O5)CC3)n2)cc1 the melting point was 156 to 159 °C.
In the case of COc1cc(-c2ccnc(-c3cn(C)c(=O)n3-c3ccc(C(C)(C)C#N)cc3)c2)ccn1, the melting point is reported as 138 °C.
Work on COc1ccc(-c2nc(Sc3cccc(F)c3)[nH]c2-c2ccc(OC)cc2)cc1 yielded a melting point of 147 to 149 °C.
In the case of COc1cc(C(=O)CBr)ccc1OC(C)=O, the melting point is reported as 82 °C.
Work on O=C(c1cc2ccc(O)cc2[nH]1)N1CCC(Cc2ccccc2)CC1 yielded a melting point of 214 to 215 °C.
In the case of CN(C)c1cccc(CNc2nc(Nc3cccc(NS(C)(=O)=O)c3)nc3[nH]cnc23)c1, the melting point is reported as 148 to 151 °C.
CC1(C)C=C(c2ccccn2)C2=C(CC=CC(C#N)=C2)C1 showed a melting point of 120 °C.
CCOC(=O)CC(=O)c1cc(F)c(N2CCC(N)C2)nc1Nc1ccc(F)cc1F (stereo not given) showed a melting point of 140 to 142 °C.
For CCOC(=O)c1cnc2c(c(C)nc3cc(C)nn32)c1O, the melting point was 207 to 208 °C.
O=Cc1cc2n(n1)CCOC2=O showed a melting point of 135 to 136 °C.
For CC1c2onc(-c3ccc(Cl)cc3)c2CCC1(C)C(=O)O (stereo not given), the melting point was 165 to 170 °C.
Compound Cc1ccc2[nH]c(=O)n(CCCN3CCC(C(=O)c4ccc(F)cc4)CC3)c2c1 has a melting point of 150 °C.
In the case of CCOc1cc(Cn2cc(CCC(=O)O)c(OCC)n2)ccc1OCc1nc(-c2ccccc2)oc1C, the melting point is reported as 105 to 106 °C.
Work on CCC(O)(c1ccc(OCCCN2CCCCC2)cc1)c1cccc(Cl)c1 (stereo not given) yielded a melting point of 80 to 81 °C.
OC12N=C(c3ccccc3)SC1Cc1cc(Cl)ccc12 (stereo not given) gave a melting point of 155 °C.
For CCCCCCCCCCCCCCCCCCOCC(O)Cn1cnc2c(N)ncnc21 (stereo not given), the melting point was 151 to 152 °C.
For COc1cc2c(c3c1OC(C)(C)C3)C(c1cccc(NC(=O)C3CCC(=O)N3)c1)=NC(C)(C)C2 (stereo not given), the melting point was 145 to 147 °C.
With FC(F)(F)c1ccc(C#Cc2ccc(C#Cc3cc4ccccc4s3)s2)cc1 the melting point was 149 to 150 °C.
With FC(F)(F)Sc1ccc(-c2ccc(Cl)cc2)[nH]1 the melting point was 34 to 39 °C.
With CNC(=S)C1=CC(CF)(CF)Oc2cc(Cl)c(Cl)cc21 the melting point was 142 to 143 °C.
O=C(C=Cc1ccccc1)c1cccc(O)c1 gave a melting point of 143 to 147 °C.
With COc1cc2ncnc(Nc3ccc(OCc4ccccn4)c(C)c3)c2cc1O the melting point was 234 to 235 °C.
With CCSc1nn2ccccc2c1C(C)=O the melting point was 84 to 85 °C.
COc1ccc(-c2nccn2N=Cc2ccc(N(C)C)cc2)cc1 showed a melting point of 108 °C.
Work on CCCCCCCC[C@H](O)C(=O)O yielded a melting point of 70 to 72 °C.
Compound CCc1cn(C2OC(CNC(=O)C(C)Oc3cc(OC)c(Cl)cc3Cl)C(O)C2F)c(=O)[nH]c1=O (stereo not given) has a melting point of 151 to 156 °C.
In the case of Nc1cccc2c1CCN(C(=O)C(F)(F)F)CC2, the melting point is reported as 85 to 88 °C.
O=C(Oc1ccccc1)N1CCC(S(=O)(=O)c2ccccc2)C1 (stereo not given) showed a melting point of 84 to 85 °C.
N#CC1c2ccccc2Sc2ccccc21 gave a melting point of 103 to 105 °C.
With Nc1nc(NCc2ccc(OCc3ccccc3)cc2)nc2nc(-c3ccco3)nn12 the melting point was 168 to 170 °C.
Work on COc1ccc(N2C(=O)C(=CN(C)C)c3ccccc32)cc1F yielded a melting point of 113 to 114 °C.
CCN1c2cscc2C(=O)N(CCN(C)C)c2ccccc21 gave a melting point of 75 to 77 °C.
Compound CN1C(=O)c2cccc(S(=O)(=O)Cl)c2C1=O has a melting point of 159 to 162 °C.
CC(C)(CO)Oc1ccc(-c2ccc(N3CCCCC3)cc2)cc1 gave a melting point of 158 to 160 °C.
CCOC(=O)N1CCC(c2nc(-c3ccc(-c4ccccc4)cc3)c[nH]2)CC1 gave a melting point of 71 to 72 °C.
In the case of CCCc1c(OCCCCCOc2ccc3c(c2CCC)OC(C(=O)O)CC3)ccc(C(C)=O)c1O (stereo not given), the melting point is reported as 66 to 68 °C.
With C=CC(=O)Nc1ccc2ncnc(Nc3ccc(Oc4ccccc4)cc3)c2c1 the melting point was 185 to 191 °C.
In the case of Cn1cnc2c([N+](=O)[O-])cc(Br)cc21, the melting point is reported as 198 °C.
With Cc1onc(-c2ccc(Br)o2)c1-c1ccccc1 the melting point was 93 to 96 °C.
For CCOP(=O)(OCC)C(F)c1ccc(NC(=O)CCc2oc(-n3cnc4ccccc43)nc2-c2ccc(Cl)cc2)cc1 (stereo not given), the melting point was 152 to 155 °C.
For Cc1[nH]c2ccccc2c1C[C@@H](N)C(=O)O, the melting point was 244 to 246 °C.
In the case of CC(C)(C)COc1cccc(C[C@@H](NC(=O)c2cccc3c2C=CCCC3)[C@@H](O)c2cccc(Cl)c2)c1 (racemic), the melting point is reported as 128 to 129 °C.
For CC(C)c1ccc(C(=O)C2c3ccccc3Oc3ccccc32)c(C(C)C)c1OS(N)(=O)=O, the melting point was 180 to 181 °C.
With COc1cc(C2CCN(C)CC2)ccc1Nc1ncc2ccc(-c3cccc(S(=O)(=O)NC(C)(C)C)c3)n2n1 the melting point was 189 to 198 °C.
Compound COC(=O)CN(C)C(=O)CC(Cc1cccc2ccccc12)C(=O)NC(Cc1c[nH]cn1)C(=O)NC(CC(C)C)C(O)C(=O)OC(C)C (mixture of isomers) has a melting point of 76 to 80 °C.
Compound CC(CC(=O)c1cccc(Cl)c1)C(=O)O (stereo not given) has a melting point of 100 to 102 °C.
With Cc1cc(Oc2ccc(C#N)cc2C(F)(F)F)n[nH]1 the melting point was 123 to 125 °C.
CCCCCC(CC(=O)Nc1cc(C(N)=O)ccc1C(C)(C)C)c1ccc(C(=O)O)cc1OC (stereo not given) showed a melting point of 204 to 206 °C.
Work on O=C(Nc1cc(-c2ccnc3c(C(=O)c4cccs4)cnn23)ccc1F)OCCCl yielded a melting point of 194 to 196 °C.
